Molecules are shown by their SMILES.

The test system of the test is Daudi cells. Nature of the test: CD107a response of Mitomycin C treated S76 to Daudi cells. The format is cell-based. The settings on record: various concentrations, 1 or 2 hours; Daudi 2:1, 4 hours. As to the method: Cloned S76 cells were treated with MMC at various concentration for 1 or 2 hours. After MMC treatment, S76 was mixed with Daudi cells at a 2:1 ratio for 4 hours. CD107a was measured by flow cytometry. For detecting CD107a, cells were washed, resuspended in 50-100 μl of staining buffer, and stained with mouse anti-human Vδ2-PE clone B6 and mouse anti-human CD107a-APC clone H4A3. Cells were washed with staining buffer and resuspended. Data for at least 1×10^4 lymphocytes (gated on the basis of forward- and side-scatter profiles) were acquired from each sample on a FACSCalibur flow cytometer (BD Biosciences). All samples were analyzed using FlowJo software.

`CO[C@@]12[C@H](COC(N)=O)C3=C(C(=O)C(C)=C(N)C3=O)N1C[C@@H]1N[C@@H]12` [MMC, Mitomycin C]: the “effect of Mitomycin C treatment on function of clone S76 (CD107a response to Daudi)” value was “did not significantly impair the function”.
